Data set [1] can be described thus: Pharmacokinetic study in rats (iv and oral). In kind it is in vivo, male SD rats. The following applies: SD, rat, plasma, 5 mg/kg. How it is done: The pharmacokinetic study of 18i was performed using eight-week-old male SD rats (Orient Bio Inc., Seongnam, Korea). 18i and its prodrug 21 (5 mg/kg, 2 mL/kg) were administered via intravenous and oral routes. Blood samples were collected at 0.033, 0.16, 0.5, 1, 2, 4, 6, 8, and 24 h for intravenous injection at 0.15, 0.5, 1, 2, 4, 6, 8, and 24 h for oral dosing after drug administration, and then immediately centrifuged at 10,000× g for 3 min. The plasma concentrations of 18i were determined by LC-MS/MS. The plasma concentration-time profiles and pharmacokientic parameters were analyzed by a non-compartmental method using the nonlinear least-squares regression program WinNonlin 5.3 (Pharsight, Mountain View, CA, USA).
The LC-MS/MS analysis was performed on an Agilent 1200 series (Agilent Technologies, Santa Clara, CA, USA) with an API 4000 linear ion trap triple quadruple mass spectrometer (AB Sciex, CA, USA). The chromatographic separation of the drug was carried out using a kinetex column (100 × 2.1 mm, 3 μm, Phenomenex, CA USA) with a SecurityGuard C18 guard column (4 mm × 2.0 mm i.d., Phenomenex). The flow rate was 300 µL/min with a mobile phase consisting of 0.1% formic acid in water (eluent A) and 0.1% formic acid in acetonitrile (eluent B) by linear gradient condition as follows: starting with 0 to 0.3 min, B: 5%; 0.3 to 2.5 min, B: 5 → 95%; 2.5 to 2.9 min, B: 95%; 2.9 to 3.0 min, B: 95 → 5%, and then re-equilibrated to initial conditions until 3 min. The total run time was 6 min and the injection volume of 5 μL.

The next data set has as its system 3T3-L1 cells. Description: In vitro efficacy test: lipogenic/adipogenic gene expression during 3T3-L1 adipocyte differentiation. In kind it is cell-based, mouse. The following applies: 10 μM or 50 μM, vs vehicle. How it is done:
3T3-L1 cells (American Type Culture Collection, Manassas, VA, USA) were cultured in DMEM supplemented with 10% FCS and […] P/S in a humidified chamber under 5% atmospheric CO2 at 37 °C. Two days after reaching confluence, cells were further cultured in adipocyte differentiation medium (DMEM/10% FBS, P/S, 0.5 mM IBMX, 1 μg mL^−1 insulin, and 1 μM dexamethasone) (day 0). After 2 days, the medium was changed to adipocyte maintenance medium (DMEM/10% FBS, 1 μg mL^−1 insulin, P/S) (day 2), and the media was changed every 2 days from day 4 to 8. Cells were treated with compound 6 at 10 or 50 μM concentrations throughout adipocyte differentiation (day 0 thru day 8). On day 8, differentiated 3T3-L1 […] were harvested for analysis of gene expression.
Total RNA was extracted from 3T3-L1 cells using Trizol reagent (Invitrogen, Carlsbad, CA, USA), purified using a RNeasy Lipid Tissue Mini kit (Qiagen, Hilden, Germany), and an aliquot (2 µg) of total RNA was reversed transcribed using the RevertAidTM First Strand cDNA Synthesis Kit (Thermo Fisher Scientific, Waltham, MA, USA) according to the manufacturer’s instructions. Real-time PCR was carried out using SYBR Green (Power SYBR Green PCR Master Mix, Thermo Fisher Scientific) with a ViiA™ 7 Real-Time PCR system (Applied Biosystems, Waltham, MA, USA). […]

The next data set concerns HFD-fed C57BL/6J mice. Description: In vivo efficacy test in high-fat diet fed mice. Set-up: species or system mouse. The note with it: vs vehicle. The procedure: All animal study protocols were approved by the Institutional Animal Care and Use Committee at the Korea Advanced Institute of Science and Technology. Male C57BL/6J mice were purchased from SLC (Shizuoka, Japan) and acclimatized for a week. Mice were housed in a humidity and temperature-controlled environment under a 12 h light-dark cycle with ad libitum access to water and food. After acclimatization, male mice were fed a high-fat diet (HFD, 60% fat calories, Research diet; New Brunswick, NJ) and received daily treatment with TPH1 inhibitors. […] Compound 18i was dissolved in 5% dimethyl sulfoxide (DMSO) (Sigma, St. Louis, MO, USA) and 25% β-cyclodextrin (Sigma, St. Louis, MO, USA). Vehicle or compound 18i (100 mg kg^−1) was injected intraperitoneally in mice for 10 days after two weeks of HFD feeding. Both compounds 19 and 21 were prepared in 10% DMSO and 10% Kolliphor EL (Sigma, St. Louis, MO, USA). Vehicle and 100 mg kg^−1 of compound 19 or compound 21 were administered daily by intraperitoneal injection or oral feeding, respectively, concomitant to the initiation of HFD feeding. For analyzing blood glucose concentration, glucose in blood collected from the tail vein was measured after fasting mice for 16 h using a Gluco Dr. Top glucometer (Allemedicus, Anyang, Korea). Body weight was measured daily and mice were sacrificed for harvesting adipose tissue and liver.
Tissue samples were fixed in 10% formalin, embedded in paraffin, and cut into 5 μm thick sections, followed by deparaffinization and rehydration for H&E staining and UCP1 immunohistochemistry. After heat-induced antigen retrieval with a citrate buffer (pH 6.0) for 10 min at 95°C, tissue sections were incubated with BLOXALL Blocking solution (Vector Laboratories, Burlingame, CA, USA) to block endogenous peroxidase, followed by incubation with 2% normal goat serum in phosphate-buffered saline (PBS) for 30 min at room temperature to block nonspecific binding. Sections were incubated overnight with the anti-UCP1 primary antibody diluted 1:200 in 2% normal goat serum in PBS (Abcam, Cambridge, UK) at 4 °C, followed by 30 min incubation with biotinylated anti-rabbit IgG secondary antibody diluted 1:400 in PBS for 30 min at room temperature. After incubation with Vectastain […] reagent (Vector Laboratories) for 30 min, peroxidase activity was visualized with 3,3′-diaminobenzidine substrates (Vector Laboratories). For measuring average adipocyte size, we analyzed three random fields of H&E stained micrographs per adipose tissue sample from two representative mice of each group using AdipoCount software.
Fresh liver tissues were flash frozen in O.C.T. compound (Sakura Finetek, Torrance, CA, USA) and 10 μm cryostat sections were collected on glass slides. Sections were allowed to air-dry for 1 h, rinsed with PBS for 5 min, and washed with distilled water for 5 min. After washing, sections were placed in 30% isopropanol for 5 min, 60% isopropanol for 5 min twice, and then stained in Oil Red O solution (0.5% Oil red O (Sigma, St. Louis, MO, USA) dissolved in 60% isopropanol) for 15 min. The stained sections were rinsed twice with distilled water, mounted, coverslipped, and documented using bright field microscopy.

Structures are written as SMILES.

As to `Cc1ccn(-c2cc(Cl)ccc2[C@@H](Oc2ncnc3c(-c4ccc(C[C@H](N)C(=O)O)cc4)csc23)C(F)(F)F)n1.Cl` [Compound 18i, (S)-2-amino-3-(4-(4-((R)-1-(4-chloro-2-(3-methyl-1H-pyrazol-1-yl)phenyl)-2,2,2-trifluoroethoxy)thieno[3,2-d]pyrimidin-7-yl)phenyl)propanoic acid hydrochloride], in data set [1] (male rats, iv, 5 mpk), the AUC(0-inf) – broadly, total exposure, with the tail of the curve extrapolated – amounted to 1220 ng·h/mL; the AUC(0-t) (commonly the area under the concentration-time curve up to a stated or last time point) turned out to be 1210 ng·h/mL; the clearance is 68.2 mL/min/kg; the half-life (as a rule, the time needed for the level to fall by half in the phase considered) was found to be 1.85 h. Moreover, the Vd in data set [1] (male rats, iv, 5 mpk, read-out: Vss) was found to be 2.16 L/kg. In addition, the AUC – broadly, the area under the concentration-time curve, a measure of exposure – in data set [1] (male, intravenous, rats, read-out: AUC (text, kind not stated)) was 1200 ng·h/mL. Besides, the “Expression of lipogenic genes Fasn, Srebp1c and adipogenic transcription factors Pparg, Cebpa” value in the data set on 3T3-L1 cells is “decreased expression of key lipogenic genes”. The Body weight gain result with HFD-fed C57BL/6J mice (100 mg/kg ip daily for 10 days after two weeks of HFD) is recorded as “blunted weight gain”. For the same compound, the “eWAT and BAT adipocyte size (histology)” value in the data set with HFD-fed C57BL/6J mice (100 mg/kg ip daily for 10 days) was “significant reduction”. Also, in the data set with HFD-fed C57BL/6J mice (16 h fasting), the “Fasting blood glucose levels” value was “lower fasting blood glucose levels”.
